For 38 molecules, LC retention time results are on record in the RepoRT retention time repository (doi:10.1016/j.chroma.2019.01.023).

Common to all, as to settings: stereoisomer not certain
The nature of data set [1]: HILIC, Merck SeQuant ZIC-pHILIC, 150 × 2.1 mm, 5 µm, 40 °C, 0.3 mL/min, estimated dead time 1.1 min; A: acetonitrile; B: water + 2.8 mM ammonium formate, pH 9; gradient (min/%B) 0/5 1/5 10/51 13/51 13.1/5 20/5.
A short description of data set [2]: RP, Phenomenex Kinetex C18, 150 × 2.1 mm, 1.7 µm, 30 °C, 0.3 mL/min, estimated dead time 1.1 min; A: water + 0.1% formic acid, pH 3; B: acetonitrile + 0.1% formic acid, pH 3; gradient (min/%B) 0/2 14/100 17/100 17.1/2 25/2.
Experiment in data set [3]: as above
This is another data set of the same source.

The nature of data set [4]: HILIC, Waters ACQUITY UPLC BEH Amide, 150 × 2.1 mm, 1.7 µm, 40 °C, 0.5 mL/min, estimated dead time 0.66 min; A: 5% water + 95% acetonitrile; B: 70% water + 30% acetonitrile + 10 mM ammonium formate, pH 6.5; gradient (min/%B) 0/0 2/0 20/70 23/70 24/0 31/0.

On to `O=C(O)CCCCCCCC(=O)O` [AZELATE], for which the LC retention time is 3.51 min in data set [1], 6.14 min in data set [2], 6.26 min in data set [3] and 1.24 min in data set [4].
In the case of `O=C(O)CCCCC1SCC2NC(=O)NC21` (configuration not stated) [BIOTIN], the LC retention time was 5.57 min in data set [1], 4.77 min in data set [2], 4.98 min in data set [3] and 5.11 min in data set [4].
For `CC(CCC(=O)O)C1CCC2C3C(O)CC4CC(O)CCC4(C)C3CC(O)C12C` (configuration not stated) [CHOLATE] the same measures were 2.33 min, 9.02 min, 9.11 min and 2.62 min.
The like results for `CC12CCC(=O)C=C1CCC1C2C(O)CC2(C)C1CCC2(O)C(=O)CO` (configuration not stated) [CORTISOL] were, in that order, 1.43 min, 7.09 min, 7.18 min and 1 min.
The like results for `Nc1ncnc2c1ncn2C1CC(O)C(CO)O1` (configuration not stated) [DEOXYADENOSINE] were, in that order, 5.19 min, 2.54 min, 2.8 min and 2.91 min.
Take `Nc1ccn(C2CC(O)C(CO)O2)c(=O)n1` (configuration not stated) [DEOXYCYTIDINE]: the LC retention time in data set [1] is 6.63 min; in data set [2], 1.43 min; in data set [3], 1.54 min; in data set [4], 5.71 min.
As for `Nc1nc2c(ncn2C2CC(O)C(CO)O2)c(=O)[nH]1` (configuration not stated) [DEOXYGUANOSINE], the LC retention time in data set [1] is 7.04 min; in data set [2] it was 2.84 min; in data set [3], 2.97 min; in data set [4], 6.48 min.
As for `O=c1ccn(C2CC(O)C(CO)O2)c(=O)[nH]1` (configuration not stated) [DEOXYURIDINE], the LC retention time is 4.73 min in data set [1], 2.39 min in data set [2], 2.63 min in data set [3] and 2.37 min in data set [4].
As for `CC1NC(=O)NC1CCCCCC(=O)O` (configuration not stated) [DETHIOBIOTIN], the LC retention time in data set [1] is 3.18 min; in data set [2], 5.18 min; in data set [3], 5.37 min; in data set [4], 2.6 min.
The like results for `COc1cc(C=CC(=O)O)ccc1O` [FERULATE] were, in that order, 3.78 min, 5.76 min, 5.87 min and 1.24 min.
Regarding `Nc1nc2nc[nH]c2c(=O)[nH]1` [GUANINE], the LC retention time in data set [1] is 7.4 min; in data set [2], 1.64 min; in data set [3] it was 1.44 min; in data set [4], 6.4 min.
The like results for `Nc1nc2c(ncn2C2OC(CO)C(O)C2O)c(=O)[nH]1` (configuration not stated) [GUANOSINE] were, in that order, 7.76 min, 2.67 min, 2.8 min and 7.3 min.
For `O=C(O)CNC(=O)c1ccccc1` [HIPPURATE] the same measures were 5.32 min, 4.62 min, 4.78 min and 2.66 min.
The like results for `O=c1[nH]cnc2nc[nH]c12` [HYPOXANTHINE] were, in that order, 6.25 min, 1.62 min, 1.76 min and 3.88 min.
Consider `NC(=O)Cc1c[nH]c2ccccc12` [INDOLE-3-ACETAMIDE], for which the LC retention time in data set [1] is 2.09 min; in data set [2] it was 5.26 min; in data set [3], 5.42 min; in data set [4], 0.98 min.
For the molecule `OCCc1c[nH]c2ccccc12` [INDOLE-3-ETHANOL], the LC retention time was 3.41 min in data set [1], 5.55 min in data set [2], 6.56 min in data set [3] and 0.83 min in data set [4].
For `O=c1[nH]cnc2c1ncn2C1OC(CO)C(O)C1O` (configuration not stated) [INOSINE] the same measures were 6.86 min, 2.64 min, 2.79 min and 5.52 min.
The like results for `O=C(O)c1cc(=O)c2ccccc2[nH]1` [KYNURENATE] were, in that order, 5.56 min, 4.19 min, 4.34 min and 2.69 min.
Turning to `NC(=O)[C@@H](N)Cc1c[nH]c2ccccc12` [L-TRYPTOPHANAMIDE], the LC retention time in data set [1] is 7.51 min; in data set [2], 3.7 min; in data set [3], 3.82 min; in data set [4], 5.86 min.
For `Cc1cc2nc3[nH]c(=O)[nH]c(=O)c3nc2cc1C` [LUMICHROME], the LC retention time in data set [1] is 2.06 min; in data set [2] it was 6.13 min; in data set [3], 6.2 min; in data set [4], 1.32 min.
For `COc1ccc2[nH]cc(CCNC(C)=O)c2c1` [MELATONIN] the same measures were 1.36 min, 6.29 min, 6.37 min and 0.88 min.
For `CSCC1OC(n2cnc3c(N)ncnc32)C(O)C1O` (configuration not stated) [METHYLTHIOADENOSINE] the same measures were 3.94 min, 3.82 min, 4.07 min and 1.99 min.
In the case of `CC(C)=CCNc1ncnc2nc[nH]c12` [N6-(DELTA2-ISOPENTENYL)-ADENINE], the LC retention time in data set [1] is 2.04 min; in data set [2] it was 4.91 min; in data set [3], 5.14 min; in data set [4], 1.15 min.
The like results for `CC(=O)NC(CC(C)C)C(=O)O` (configuration not stated) [N-ACETYLLEUCINE] were, in that order, 3.02 min, 5.08 min, 5.25 min and 4.22 min.
For `CSCCC(NC(C)=O)C(=O)O` (configuration not stated) [N-ACETYLMETHIONINE] the same measures were 4.9 min, 4.1 min, 4.22 min and 3.31 min.
The like results for `CC(=O)NC(Cc1ccccc1)C(=O)O` (configuration not stated) [N-ACETYLPHENYLALANINE] were, in that order, 4.08 min, 5.54 min, 5.64 min and 2.48 min.
As for `CC(=O)NCCc1c[nH]c2ccc(O)cc12` [N-ACETYLSEROTONIN], the LC retention time in data set [1] is 2.26 min; in data set [2] it was 4.58 min; in data set [3], 4.83 min; in data set [4], 1.02 min.
For `CC(=O)NC(Cc1c[nH]c2ccccc12)C(=O)O` (configuration not stated) [N-ACETYLTRYPTOPHAN], the LC retention time in data set [1] is 5.66 min; in data set [2], 5.82 min; in data set [3], 5.91 min; in data set [4] it was 2.78 min.
For `CSCC[C@H](NC=O)C(=O)O` [N-FORMYL-L-METHIONINE] the same measures were 5.35 min, 3.85 min, 3.93 min and 2.24 min.
The like results for `CC(C)(CO)C(O)C(=O)NCCC(=O)O` (configuration not stated) [PANTOTHENATE] were, in that order, 6.03 min, 3.4 min, 3.49 min and 3.31 min.
The like results for `Cn1c(=O)[nH]c2ncn(C)c2c1=O` [PARAXANTHINE] were, in that order, 2.16 min, 2.27 min, 4.04 min and 1.36 min.
On to `NC(Cc1ccccc1)C(=O)O` (configuration not stated) [PHENYLALANINE], for which the LC retention time in data set [1] was 7.04 min; in data set [2], 3.13 min; in data set [3], 3.18 min; in data set [4] it was 7.87 min.
For `Cc1ncc(CO)c(CO)c1O` [PYRIDOXINE] the same measures were 3.69 min, 1.65 min, 1.81 min and 3.29 min.
As to `Cc1cc2nc3c(=O)[nH]c(=O)nc-3n(CC(O)C(O)C(O)CO)c2cc1C` (configuration not stated) [RIBOFLAVIN], the LC retention time in data set [1] was 5.9 min; in data set [2], 4.65 min; in data set [3] it was 4.85 min; in data set [4], 6.01 min.
The like results for `NC(=O)c1ccccc1O` [SALICYLAMIDE] were, in that order, 1.46 min, 5.26 min, 5.42 min and 0.81 min.
The like results for `O=C(O)CCCCCCCCC(=O)O` [SEBACATE] were, in that order, 2.41 min, 6.91 min, 7 min and 1.12 min.
The like results for `Cn1c(=O)c2[nH]cnc2n(C)c1=O` [THEOPHYLLINE] were, in that order, 1.98 min, 3.88 min, 4.07 min and 1.36 min.
In the case of `CSc1ncnc2nc[nH]c12` [THIOPURINE S-METHYLETHER], the LC retention time is 2.09 min in data set [1], 4.4 min in data set [2], 4.64 min in data set [3] and 1.08 min in data set [4].
